# Measured values as given in PMC3409373, “Ellagic acid, a phenolic compound, exerts anti-angiogenesis effects via VEGFR-2 signaling pathway in breast cancer” (Breast Cancer Research and Treatment, 2012).
# Target: T1, VEGFR-2 (Homo sapiens, UniProt P35968)
# T1 construct: gene KDR
# Assay: ELISA-based tyrosine kinase assay with VEGFR-2 (Upstate), poly-Glu-Tyr substrate, Mg2+ and ATP
# Format: biochemical
# T1 sequence (P35968 20-1356): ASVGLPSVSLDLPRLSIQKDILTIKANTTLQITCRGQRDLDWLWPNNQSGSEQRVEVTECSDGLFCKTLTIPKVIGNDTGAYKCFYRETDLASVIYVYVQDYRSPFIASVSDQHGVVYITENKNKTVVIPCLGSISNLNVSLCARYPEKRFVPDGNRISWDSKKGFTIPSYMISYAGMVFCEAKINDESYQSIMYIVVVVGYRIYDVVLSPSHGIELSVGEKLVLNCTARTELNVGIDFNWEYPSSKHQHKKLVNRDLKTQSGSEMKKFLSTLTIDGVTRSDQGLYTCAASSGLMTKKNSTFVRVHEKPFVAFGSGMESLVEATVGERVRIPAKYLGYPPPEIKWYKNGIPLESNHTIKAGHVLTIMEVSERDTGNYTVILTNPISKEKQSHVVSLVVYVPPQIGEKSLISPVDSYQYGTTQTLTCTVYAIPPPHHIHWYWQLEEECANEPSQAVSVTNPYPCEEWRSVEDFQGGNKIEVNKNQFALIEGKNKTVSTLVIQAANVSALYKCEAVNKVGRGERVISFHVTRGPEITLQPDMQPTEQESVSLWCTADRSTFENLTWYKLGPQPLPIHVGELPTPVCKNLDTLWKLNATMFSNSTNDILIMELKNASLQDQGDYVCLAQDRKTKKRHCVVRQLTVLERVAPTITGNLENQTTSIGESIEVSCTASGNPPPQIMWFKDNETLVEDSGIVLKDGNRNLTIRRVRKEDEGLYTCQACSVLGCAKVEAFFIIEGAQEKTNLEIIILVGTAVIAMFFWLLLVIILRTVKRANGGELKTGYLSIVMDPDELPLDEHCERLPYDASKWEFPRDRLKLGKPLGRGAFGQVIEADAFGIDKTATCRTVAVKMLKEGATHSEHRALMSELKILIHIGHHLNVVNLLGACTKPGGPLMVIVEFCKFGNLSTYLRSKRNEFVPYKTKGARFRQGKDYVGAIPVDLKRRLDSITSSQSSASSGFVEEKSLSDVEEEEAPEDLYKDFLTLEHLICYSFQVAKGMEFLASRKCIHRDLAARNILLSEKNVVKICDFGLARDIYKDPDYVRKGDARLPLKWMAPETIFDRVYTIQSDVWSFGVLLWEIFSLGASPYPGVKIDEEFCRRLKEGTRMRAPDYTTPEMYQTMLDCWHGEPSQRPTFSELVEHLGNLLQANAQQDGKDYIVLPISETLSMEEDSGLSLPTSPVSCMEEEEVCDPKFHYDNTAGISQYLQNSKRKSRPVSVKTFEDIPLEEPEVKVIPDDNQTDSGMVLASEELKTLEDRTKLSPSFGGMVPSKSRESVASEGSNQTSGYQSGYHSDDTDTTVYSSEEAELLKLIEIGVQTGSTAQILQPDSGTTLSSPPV
smiles,measurement,value
"O=c1oc2c(O)c(O)cc3c(=O)oc4c(O)c(O)cc1c4c23 [ellagic acid, 4,4′,5,5′6, 6′-hexahydroxydiphenic acid 2,6,2′6′-dilactone]",IC50,~25.8 nM
